Data on nine compounds can be found in the SangsterLogP compilation.

The data set is described as follows: method code SF-AS, from DOI: 10.1016/s0021-9673(00)82338-9. The conditions noted are these: pH 9.0.
Regarding `Cn1c([N+](=O)[O-])cnc1C1CC1`, the logD is 1. The compound `CN1CCN(Cc2ncc([N+](=O)[O-])n2C)CC1` had a logD of -0.32. To `O=[N+]([O-])c1cnc(C=Cc2ccc3c(c2)OCO3)n1CCO` belongs 2.03; to `Cc1ncc([N+](=O)[O-])n1CC(O)Cn1c([N+](=O)[O-])cnc1C`, 0.31; to `Cn1c([N+](=O)[O-])cnc1COC(N)=O`, -0.38. Compound `Cn1c([N+](=O)[O-])cnc1C=O` returned a logD of -0.69. To `Cc1ncc([N+](=O)[O-])n1CC(=O)N1C=CN(C(=O)Cn2c([N+](=O)[O-])cnc2C)C=C1` belongs -0.7; to `O=[N+]([O-])c1cncn1CCN1CCOCC1`, 0.07. To `Cn1c([N+](=O)[O-])cnc1CO` belongs -0.03.
